Measurements from patent US20250129104A1, “7H-PYRROLO[2,3-D]PYRIMIDINES AND PREPARATION AND USES THEREOF” (BioSplice Therapeutics, Inc., priority 2021, published 2025).
pEC50: −log10 of the molar value.

biological target: recombinant DYRK1A kinase (Homo sapiens (Human), UniProt Q13627); assay: DYRK1A kinase assay (Ser/Thr 18 peptide Z-lyte FRET assay); assay type: biochemical; details: DYRK1A kinase activity; 15 μM ATP, 1 h room temperature; method text calls the value IC50
Outline: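 FRET Z-lyte read-out (coumarin/fluorescein ratio, % phosphorylation) after 1 h development; IC50 from non-linear curve fit. Reaction: 0.25 μg/mL recombinant human DYRK1A, Ser/Thr 18 peptide 4 μM, ATP 15 μM, compound in 11-point 1:3 series from 10 μM, 1 h, room temperature, duplicate wells.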

| Structure (SMILES) | pEC50 |
| --- | --- |
| COc1nc(NCC(C)(C)F)nc2[nH]cc(-c3ccn4nccc4c3)c12 [Compound 2305, N-(2-Fluoro-2-methylpropyl)-4-methoxy-5-(pyrazolo[1,5-a]pyridin-5-yl)-7H-pyrrolo[2,3-d]pyrimidin-2-amine] | 7.66 |
| COc1nc(N[C@@H]2CCCOC2)nc2[nH]cc(-c3ccn4nccc4c3)c12 [Compound 2314, (R)-4-Methoxy-5-(pyrazolo[1,5-a]pyridin-5-yl)-N-(tetrahydro-2H-pyran-3-yl)-7H-pyrrolo[2,3-d]pyrimidin-2-amine] | 7.76 |
| COc1nc(N[C@H]2CCCOC2)nc2[nH]cc(-c3ccn4nccc4c3)c12 [Compound 2315, (S)-4-Methoxy-5-(pyrazolo[1,5-a]pyridin-5-yl)-N-(tetrahydro-2H-pyran-3-yl)-7H-pyrrolo[2,3-d]pyrimidin-2-amine] | 6.92 |
| COc1nc(N[C@@H]2CCOC[C@@H]2F)nc2[nH]cc(-c3ccn4nccc4c3)c12 [Compound 2317, N-((3R,4R)-3-Fluorotetrahydro-2H-pyran-4-yl)-4-methoxy-5-(pyrazolo[1,5-a]pyridin-5-yl)-7H-pyrrolo[2,3-d]pyrimidin-2-amine] | 6.97 |
| COc1nc(N[C@@H]2CCOC[C@H]2O)nc2[nH]cc(-c3ccn4nccc4c3)c12 [Compound 2318, (3S,4R)-4-((4-Methoxy-5-(pyrazolo[1,5-a]pyridin-5-yl)-7H-pyrrolo[2,3-d]pyrimidin-2-yl)amino)tetrahydro-2H-pyran-3-ol] | 7.89 |
| COc1nc(N[C@@H]2CCOC[C@H]2OC)nc2[nH]cc(-c3ccn4nccc4c3)c12 [Compound 2319, 4-Methoxy-N-((3S,4R)-3-methoxytetrahydro-2H-pyran-4-yl)-5-(pyrazolo [1,5-a]pyridin-5-yl)-7H-pyrrolo[2,3-d]pyrimidin-2-amine] | 6.54 |
| CC(C)Oc1nc(N[C@H]2CC[C@@](C)(O)CC2)nc2[nH]cc(-c3ccn4nccc4c3)c12 [Compound 2320, cis-4-((4-Isopropoxy-5-(pyrazolo[1,5-a]pyridin-5-yl)-7H-pyrrolo[2,3-d]pyrimidin-2-yl)amino)-1-methylcyclohexan-1-ol] | 7.23 |
| COc1nc(N[C@@H]2[C@@H]3COC[C@@H]32)nc2[nH]cc(-c3ccn4nccc4c3)c12 [Compound 2324, N-((1R,5S,6s)-3-oxabicyclo[3.1.0]hexan-6-yl)-4-methoxy-5-(pyrazolo [1,5-a]pyridin-5-yl)-7H-pyrrolo[2,3-d]pyrimidin-2-amine] | 8.82 |
| COc1nc(NCC(C)(C)F)nc2[nH]cc(-c3ccn4nccc4n3)c12 [Compound 2325, N-(2-Fluoro-2-methylpropyl)-4-methoxy-5-(pyrazolo[1,5-a]pyrimidin-5-yl)-7H-pyrrolo[2,3-d]pyrimidin-2-amine] | 7.06 |
| C[C@]1(O)CC[C@@H](Nc2ncc3c(-c4ccc5nccn5c4)c[nH]c3n2)CC1 [Compound 2349, cis-4-((5-(Imidazo[1,2-a]pyridin-6-yl)-7H-pyrrolo[2,3-d]pyrimidin-2-yl)amino)-1-methylcyclohexan-1-ol] | 8.89 |
| COc1nc(N[C@H]2CC[C@](C)(O)CC2)nc2[nH]cc(-c3ccc4nccn4c3)c12 [Compound 2378, trans-4-((5-(Imidazo[1,2-a]pyridin-6-yl)-4-methoxy-7H-pyrrolo[2,3-d]pyrimidin-2-yl)amino)-1-methylcyclohexan-1-ol] | 8.96 |
| C[C@]1(O)CC[C@@H](Nc2ncc3c(-c4ccc5ncnn5c4)c[nH]c3n2)CC1 [Compound 3018, (1s,4s)-4-((5-([1,2,4]Triazolo[1,5-a]pyridin-6-yl)-7H-pyrrolo[2,3-d]pyrimidin-2-yl)amino)-1-methylcyclohexan-1-ol] | 8.36 |
| COc1nc(N[C@H]2CC[C@@H](OC)CC2)nc2[nH]cc(-c3ccc4ncnn4c3)c12 [Compound 3047, 5-([1,2,4]Triazolo[1,5-a]pyridin-6-yl)-4-methoxy-N-(cis-4-methoxycyclohexyl)-7H-pyrrolo[2,3-d]pyrimidin-2-amine] | 8.92 |
| [2H]C([2H])([2H])Oc1nc(N[C@H]2CC[C@@H](OC)CC2)nc2[nH]cc(-c3ccc4nnn(C)c4c3)c12 [Compound 3115, 4-(Methoxy-d3)—N-(cis-4-methoxycyclohexyl)-5-(1-methyl-1H-benzo[d][1,2,3]triazol-6-yl)-7H-pyrrolo[2,3-d]pyrimidin-2-amine] | 8.89 |
| COc1nc(N[C@H]2CC[C@@](C)(O)CC2)nc2[nH]cc(-c3ccc4nnn(C)c4c3)c12 [Compound 3120, cis-4-((4-Methoxy-5-(1-methyl-1H-benzo[d][1,2,3]triazol-6-yl)-7H-pyrrolo[2,3-d]pyrimidin-2-yl)amino)-1-methylcyclohexan-1-ol] | 8.38 |
| COc1nc(N[C@@H]2[C@@H]3COC[C@@H]32)nc2[nH]cc(-c3ccc4nnn(C)c4c3)c12 [Compound 3127, N-((1R,5S,6s)-3-Oxabicyclo[3.1.0]hexan-6-yl)-4-methoxy-5-(1-methyl-1H-benzo[d][1,2,3]triazol-6-yl)-7H-pyrrolo[2,3-d]pyrimidin-2-amine] | 8.85 |
| COc1nc(NC2CCC3(CC2)COC3)nc2[nH]cc(-c3ccc4nnn(C)c4c3)c12 [Compound 3133, 4-Methoxy-5-(1-methyl-1H-benzo[d][1,2,3]triazol-6-yl)-N-(2-oxaspiro[3.5]nonan-7-yl)-7H-pyrrolo[2,3-d]pyrimidin-2-amine] | 8.96 |
| C[C@]1(O)CC[C@@H](Nc2ncc3c(-c4ccc5nccn5n4)c[nH]c3n2)CC1 [Compound 3224, (1s,4s)-4-((5-(Imidazo[1,2-b]pyridazin-6-yl)-7H-pyrrolo[2,3-d]pyrimidin-2-yl)amino)-1-methylcyclohexan-1-ol] | 8.59 |
| CO[C@H]1CC[C@H](Nc2ncc3c(-c4ccn5nccc5c4)c[nH]c3n2)CC1 [Compound 3277, N-(trans-4-Methoxycyclohexyl)-5-(pyrazolo[1,5-a]pyridin-5-yl)-7H-pyrrolo[2,3-d]pyrimidin-2-amine] | 8.72 |
| COc1nc(N[C@H]2CC[C@H](OC)CC2)nc2[nH]cc(-c3ccn4nccc4c3)c12 [Compound 3310, 4-Methoxy-N-(trans-4-methoxycyclohexyl)-5-(pyrazolo[1,5-a]pyridin-5-yl)-7H-pyrrolo[2,3-d]pyrimidin-2-amine] | 6.64 |
| COc1nc(NC2CC3(COC3)C2)nc2[nH]cc(-c3ccn4nccc4c3)c12 [Compound 3321, 4-Methoxy-5-(pyrazolo[1,5-a]pyridin-5-yl)-N-(2-oxaspiro[3.3]heptan-6-yl)-7H-pyrrolo[2,3-d]pyrimidin-2-amine] | 7.43 |

Continued by rising pEC50, values first:

| pEC50 | Structure (SMILES) |
| --- | --- |
| 6.34 | COc1nc(N[C@H]2CC[C@H](OC(F)F)CC2)nc2[nH]cc(-c3ccn4nccc4c3)c12 [Compound 2308, N-(trans-4-(Difluoromethoxy)cyclohexyl)-4-methoxy-5-(pyrazolo[1,5-a]pyridin-5-yl)-7H-pyrrolo[2,3-d]pyrimidin-2-amine] |
| 6.77 | COc1nc(N[C@H]2CC[C@@H](OC)CC2)nc2[nH]cc(-c3ccn4nccc4c3)c12 [Compound 2306, 4-Methoxy-N-(cis-4-methoxycyclohexyl)-5-(pyrazolo[1,5-a]pyridin-5-yl)-7H-pyrrolo[2,3-d]pyrimidin-2-amine] |
| 6.80 | COc1nc(N[C@@H]2CCOC[C@H]2F)nc2[nH]cc(-c3ccn4nccc4c3)c12 [Compound 2316, N-((3S,4R)-3-Fluorotetrahydro-2H-pyran-4-yl)-4-methoxy-5-(pyrazolo[1,5-a]pyridin-5-yl)-7H-pyrrolo[2,3-d]pyrimidin-2-amine] |
| 7.72 | FC(F)O[C@H]1CC[C@H](Nc2ncc3c(-c4ccn5nccc5c4)c[nH]c3n2)CC1 [Compound 3278, N-(trans-4-(Difluoromethoxy)cyclohexyl)-5-(pyrazolo[1,5-a]pyridin-5-yl)-7H-pyrrolo[2,3-d]pyrimidin-2-amine] |
| 8.80 | COc1nc(NC2CCC3(CC2)COC3)nc2[nH]cc(-c3ccn4nccc4c3)c12 [Compound 3326, 4-Methoxy-5-(pyrazolo[1,5-a]pyridin-5-yl)-N-(2-oxaspiro[3.5]nonan-7-yl)-7H-pyrrolo[2,3-d]pyrimidin-2-amine] |
| 8.85 | [2H]C([2H])([2H])Oc1nc(N[C@H]2CC[C@@H](OC)CC2)nc2[nH]cc(-c3ccn4nccc4c3)c12 [Compound 3311, 4-(Methoxy-d3)—N-(cis-4-methoxycyclohexyl)-5-(pyrazolo[1,5-a]pyridin-5-yl)-7H-pyrrolo[2,3-d]pyrimidin-2-amine] |
| 8.96 | COc1nc(N[C@H]2CC[C@](C)(O)CC2)nc2[nH]cc(-c3cc(F)c4nccn4c3)c12 [Compound 2494, trans-4-((5-(8-Fluoroimidazo[1,2-a]pyridin-6-yl)-4-methoxy-7H-pyrrolo[2,3-d]pyrimidin-2-yl)amino)-1-methylcyclohexan-1-ol] |
| 8.96 | COc1nc(N)nc2[nH]cc(-c3ccn4nccc4c3)c12 [Compound 3291, 4-methoxy-5-(pyrazolo[1,5-a]pyridin-5-yl)-7H-pyrrolo[2,3-d]pyrimidin-2-amine] |
| 9.05 | COc1nc(NC2[C@H]3COC[C@@H]23)nc2[nH]cc(-c3ccn4nccc4c3)c12 (stereo partly drawn) [Compound 2323, N-((1R,5S,6r)-3-Oxabicyclo[3.1.0]hexan-6-yl)-4-methoxy-5-(pyrazolo[1,5-a]pyridin-5-yl)-7H-pyrrolo[2,3-d]pyrimidin-2-amine] |
| 9.22 | COc1nc(N[C@@H]2[C@@H]3COC[C@@H]32)nc2[nH]cc(-c3ccc4nnn(C)c4c3)c12 [Compound 3128, N-((1R,5S,6r)-3-Oxabicyclo[3.1.0]hexan-6-yl)-4-methoxy-5-(1-methyl-1H-benzo[d][1,2,3]triazol-6-yl)-7H-pyrrolo[2,3-d]pyrimidin-2-amine] |
| 9.70 | COc1nc(N[C@H]2CC[C@](C)(O)CC2)nc2[nH]cc(-c3ccc4nnn(C)c4c3)c12 [Compound 3119, trans-4-((4-Methoxy-5-(1-methyl-1H-benzo[d][1,2,3]triazol-6-yl)-7H-pyrrolo[2,3-d]pyrimidin-2-yl)amino)-1-methylcyclohexan-1-ol] |
